Some results are limits rather than exact numbers.

Chain of Glycogen synthase kinase-3 beta (P49841 whole entry): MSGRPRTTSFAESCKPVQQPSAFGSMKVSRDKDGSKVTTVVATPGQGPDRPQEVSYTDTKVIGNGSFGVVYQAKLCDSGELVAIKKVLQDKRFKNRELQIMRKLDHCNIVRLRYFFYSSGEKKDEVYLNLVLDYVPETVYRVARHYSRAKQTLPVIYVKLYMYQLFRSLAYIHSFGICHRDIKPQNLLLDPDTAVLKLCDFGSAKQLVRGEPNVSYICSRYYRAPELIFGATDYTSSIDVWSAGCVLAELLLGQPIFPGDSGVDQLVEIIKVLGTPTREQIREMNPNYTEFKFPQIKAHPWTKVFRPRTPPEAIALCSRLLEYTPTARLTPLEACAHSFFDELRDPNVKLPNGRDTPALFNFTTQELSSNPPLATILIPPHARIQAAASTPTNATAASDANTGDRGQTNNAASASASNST

The test concerns the target Glycogen synthase kinase-3 beta (Homo sapiens, UniProt P49841). The experiment in a line: Inhibition of human GSK3beta using YRRAAVPPSPSLSRHSSPHQ(pS)EDEEE as substrate in presence of gamma-33P-ATP.
Consider `O=C(/C=C/c1cnc2[nH]cc(-c3ccccc3)c2c1)N[C@@H](CO)Cc1ccccc1`, for which the IC50 turned out to be 752 nM.

For the compound `O=C(CNC(=O)c1ccc2[nH]cc(-c3ccccc3)c2c1)NCCc1c[nH]c2ccccc12`, the 50% inhibitory concentration (IC50) was greater than 50000 nM.

On to `O=C(CNC(=O)c1cnc2[nH]c(-c3ccccc3)cc2c1)NCCc1c[nH]c2ccccc12`, for which the IC50 was greater than 50000 nM.

For the compound `O=C(/C=C/c1cnc2[nH]cc(-c3ccccc3)c2c1)NCCc1cccnc1`, the IC50 turned out to be 32 nM.

`C[C@@H](NC(=O)/C=C/c1cnc2[nH]cc(-c3ccccc3)c2c1)[C@@H](O)c1ccccc1`: the IC50 was 180 nM.

As for `O=C(/C=C/c1cnc2[nH]cc(-c3ccccc3)c2c1)NCCc1ccccn1`, the IC50 came to 19 nM.

With `O=C(CNC(=O)c1cnc2[nH]ccc2c1)NCCc1c[nH]c2ccccc12`, the IC50 was greater than 50000 nM.

`O=C(/C=C/c1cnc2[nH]cc(-c3ccccc3)c2c1)NCCc1c[nH]cn1`: the 50% inhibitory concentration (IC50) is 49 nM.

Consider `O=C(CNC(=O)c1cnc2[nH]cc(C(=O)c3ccccc3)c2c1)NCCc1c[nH]c2ccccc12`, for which the IC50 worked out at 15700 nM.

With `O=C(CNC(=O)c1cnc2[nH]cc(-c3ccccc3)c2c1)NCCc1c[nH]cn1`, the half-inhibitory concentration (IC50) amounted to 2610 nM.

As usually defined, the IC50 is the concentration needed to halve the response being measured.

Source of the values: ChEMBL document CHEMBL3867471, “Identification of lead small molecule inhibitors of glycogen synthase kinase-3 beta using a fragment-linking strategy” (Bioorg Med Chem Lett, 2016).
